In brackets after ≈: the same amount, converted by molar mass.
Tests used:
Assay in all cases: Broth dilution MIC
Assay type in all cases: cell-based
[1] = test system: P. aeruginosa GC 4532; conditions: Pseudomonas aeruginosa, GC4532; P. aeruginosa GC 4532; Mueller-Hinton broth, 18 hours at 35° C.; read-out: Antimicrobial Activity (MIC)
Protocol: (§1) The in vitro antibacterial activity of Example 1 through Example 20 is determined against a spectrum of Gram-positive and Gram-negative bacteria by a standard broth dilution method. Serial dilution of the compounds are made in Mueller-Hinton broth and inoculated with a bacterial suspension. The lowest concentration of compound that inhibited the growth of a bacterial strain after 18 hours of incubation at 35° C. is reported as the minimal inhibitory concentration (MIC) for that strain.

[2] = test system: S. marcescens GC 4077; conditions: Serratia marcescens, GC4077; S. marcescens GC 4077; Mueller-Hinton broth, 18 hours at 35° C.; read-out: Antimicrobial Activity (MIC)
Protocol: as §1

[3] = test system: E. coli GC 2203; conditions: Escherichia coli, GC2203; E. coli GC 2203; Mueller-Hinton broth, 18 hours at 35° C.; read-out: Antimicrobial Activity (MIC)
Protocol: as §1

[4] = test system: S. aureus GC 1131; conditions: Staphylococcus aureus, GC1131; S. aureus GC 1131; Mueller-Hinton broth, 18 hours at 35° C.; read-out: Antimicrobial Activity (MIC)
Protocol: as §1

[5] = test system: E. faecalis GC 2242; conditions: Enterococcus faecalis, GC2242; E. faecalis GC 2242; Mueller-Hinton broth, 18 hours at 35° C.; read-out: Antimicrobial Activity (MIC)
Protocol: as §1

[6] = test system: S. aureus GC 4536; conditions: Staphylococcus aureus, GC4536; S. aureus GC 4536; Mueller-Hinton broth, 18 hours at 35° C.; read-out: Antimicrobial Activity (MIC)
Protocol: as §1

[7] = test system: E. faecalis GC 4555; conditions: Enterococcus faecalis, GC4555; E. faecalis GC 4555; Mueller-Hinton broth, 18 hours at 35° C.; read-out: Antimicrobial Activity (MIC)
Protocol: as §1

[8] = test system: CNS GC 4547; conditions: CNS GC 4547; Mueller-Hinton broth, 18 hours at 35° C.; read-out: Antimicrobial Activity (MIC)
Protocol: as §1

[9] = test system: P. aeruginosa GC 2214; conditions: Pseudomonas aeruginosa, GC2214; P. aeruginosa GC 2214; Mueller-Hinton broth, 18 hours at 35° C.; read-out: Antimicrobial Activity (MIC)
Protocol: as §1

[10] = test system: E. cloacae GC 3783; conditions: Enterobacter cloacae, GC3783; E. cloacae GC 3783; Mueller-Hinton broth, 18 hours at 35° C.; read-out: Antimicrobial Activity (MIC)
Protocol: as §1

[11] = test system: S. aureus GC 2216; conditions: Staphylococcus aureus, GC2216; S. aureus GC 2216; Mueller-Hinton broth, 18 hours at 35° C.; read-out: Antimicrobial Activity (MIC)
Protocol: as §1

[12] = test system: E. faecalis GC 842; conditions: Enterococcus faecalis, GC842; E. faecalis GC 842; Mueller-Hinton broth, 18 hours at 35° C.; read-out: Antimicrobial Activity (MIC)
Protocol: as §1

[13] = test system: E. coli GC 3226; conditions: Escherichia coli, GC3226; E. coli GC 3226; Mueller-Hinton broth, 18 hours at 35° C.; read-out: Antimicrobial Activity (MIC)
Protocol: as §1

[14] = test system: E. coli GC 4560; conditions: Escherichia coli, GC4560, 18 h, read-out: Antimicrobial Activity (MIC)
Protocol: as §1

[15] = test system: E. coli GC 4559; conditions: Escherichia coli, GC4559; E. coli GC 4559; Mueller-Hinton broth, 18 hours at 35° C.; read-out: Antimicrobial Activity (MIC)
Protocol: as §1

[16] = test system: CNS GC 4537; conditions: CNS GC 4537; Mueller-Hinton broth, 18 hours at 35° C.; read-out: Antimicrobial Activity (MIC)
Protocol: as §1

[17] = test system: CNS GC 4538; conditions: CNS GC 4538; Mueller-Hinton broth, 18 hours at 35° C.; read-out: Antimicrobial Activity (MIC)
Protocol: as §1

[18] = test system: P. rettgeri GC 4530; conditions: Providencia rettgeri, GC4530; P. rettgeri GC 4530; Mueller-Hinton broth, 18 hours at 35° C.; read-out: Antimicrobial Activity (MIC)
Protocol: as §1

[19] = test system: M. morganii GC 4531; conditions: Morganella morganii, GC4531; M. morganii GC 4531; Mueller-Hinton broth, 18 hours at 35° C.; read-out: Antimicrobial Activity (MIC)
Protocol: as §1

[20] = test system: K. pneumoniae GC 4534; conditions: Klebsiella pneumoniae, GC4534; K. pneumoniae GC 4534; Mueller-Hinton broth, 18 hours at 35° C.; read-out: Antimicrobial Activity (MIC)
Protocol: as §1

SMILES | MIC [1] [µg/mL] | MIC [2] [µg/mL] | MIC [3] [µg/mL] | MIC [4] [µg/mL] | MIC [5] [µg/mL] | MIC [6] [µg/mL] | MIC [7] [µg/mL] | MIC [8] [µg/mL] | MIC [9] [µg/mL] | MIC [10] [µg/mL] | MIC [11] [µg/mL] | MIC [12] [µg/mL] | MIC [13] [µg/mL] | MIC [14] [µg/mL] | MIC [15] [µg/mL] | MIC [16] [µg/mL] | MIC [17] [µg/mL] | MIC [18] [µg/mL] | MIC [19] [µg/mL] | MIC [20] [µg/mL]
CCCCCCN1C(=O)C([C@@H](OC2O[C@H](CN)[C@H](O)[C@H]2OC)[C@H]2O[C@@H](n3ccc(=O)[nH]c3=O)[C@H](O)[C@@H]2O)N(CCCNC(=O)C(NC(=O)C(NC(=O)NC(C(=O)O)C(C)C)C2CCNC(=N)N2)C(O)C(C)C)C1=O (stereo partly drawn) [Example 3, 14-[5-((R)-{[(3R,4S,5R)-5-(Aminomethyl)-4-hydroxy-3-methoxytetrahydro-2-furanyl]oxy}{(2S,3S,4R,5R)-5-[2,4-dioxo-3,4-dihydro-1 (2H)-pyrimidinyl]-3,4-dihydroxytetrahydro-2-furanyl}methyl)-3-hexyl-2,4-dioxo-1-imidazolidinyl]-9-(1-hydroxy-2-methylpropyl)-6-(2-iminohexahydro-4-pyrimidinyl)-2-isopropyl-4,7,10-trioxo-3,5,8,11-tetraazatetradecan-1-oic acid] | > 32 | > 32 | > 32 | > 32 | > 32 | > 32 | > 32 | > 32 | > 32 | > 32 | > 32 | > 32 | > 32 | 32 (≈ 30.3 µM) | > 32 | > 32 | > 32 | > 32 | > 32 | > 32
COc1ccc(N2C(=O)C([C@@H](OC3O[C@H](CN)[C@H](O)[C@H]3OC)[C@H]3O[C@@H](n4ccc(=O)[nH]c4=O)[C@H](O)[C@@H]3O)N(CCCNC(=O)C(NC(=O)C(NC(=O)NC(C(=O)O)C(C)C)C3CCNC(=N)N3)C(O)C(C)C)C2=O)cc1 (stereo partly drawn) [Example 4, 14-[5-((R)-{[(3R,4S,5R)-5-(Aminomethyl)-4-hydroxy-3-methoxytetrahydro-2-furanyl]oxy}{(2S,3S,4R,5R)-5-[2,4-dioxo-3,4-dihydro-1 (2H)-pyrimidinyl]-3,4-dihydroxytetrahydro-2-furanyl}methyl)-3-(4-methoxyphenyl)-2,4-dioxo-1-imidazolidinyl]-9-(1-hydroxy-2-methylpropyl)-6-(2-iminohexahydro-4-pyrimidinyl)-2-isopropyl-4,7,10-trioxo-3,5,8,11-tetraazatetradecan-1-oic acid] | > 32 | > 32 | > 32 | > 32 | > 32 | > 32 | > 32 | > 32 | > 32 | > 32 | > 32 | > 32 | > 32 | > 32 | > 32 | > 32 | > 32 | > 32 | > 32 | > 32
